Assay results: patent publication US20250136619A1, “HETEROBIFUNCTIONAL COMPOUNDS AND THEIR USE IN TREATING DISEASE” (HALDA THERAPEUTICS OPCO, INC., priority 2021, published 2025)

Tests used:
BTK = BTK (Homo sapiens (Human), UniProt Q06187); test: KdELECT assay for binding affinity to BTK
Outline: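 Competition binding of test compound against bead-immobilized biotinylated ligand; kinase as T7 phage fusion or HEK-293-expressed DNA-tagged protein. 11-point 3-fold dilution, 0.9% DMSO final, 1 h room temperature with shaking. Bound kinase eluted with 0.5 μM non-biotinylated ligand and quantified by qPCR; Kd derived.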

BRD4-BD1 = BRD4-BD1 (Homo sapiens (Human), UniProt O60885); test: bromoKdELECT assay for binding affinity to BRD4-BD1
Description: (§1) Compounds were tested using a bromoKdELECT assay. T7 phage strains displaying bromodomains were grown in parallel in 24-well blocks in an E. coli host derived from the BL21 strain. E. coli were grown to log-phase and infected with T7 phage from a frozen stock (multiplicity of infection=0.4) and incubated with shaking at 32° C. until lysis (90-150 minutes). The lysates were centrifuged (5,000×g) and filtered (0.2 μm) to remove cell debris. Streptavidin-coated magnetic beads were treated with biotinylated small molecule or acetylated peptide ligands for 30 minutes at room temperature to generate affinity resins for bromodomain assays. The liganded beads were blocked with excess biotin and washed with blocking buffer (SeaBlock (Pierce), 1% BSA, 0.05% Tween 20, 1 mM DTT) to remove unbound ligand and to reduce nonspecific phage binding. Binding reactions were assembled by combining bromodomains, liganded affinity beads, and test compounds in 1×binding buffer (17% SeaBlock, 0.33×PBS, 0.04% Tween 20, 0.02% BSA, 0.004% Sodium azide, 7.4 mM DTT). Test compounds were prepared as 1000X stocks in 100% DMSO. Kds were determined using an 11-point 3-fold compound dilution series with one DMSO control point. All compounds for Kd measurements are distributed by acoustic transfer (non-contact dispensing) in 100% DMSO. The compounds were then diluted directly into the assays such that the final concentration of DMSO was 0.09%. All reactions performed in polypropylene 384-well plates. Each was a final volume of 0.02 ml. The assay plates were incubated at room temperature with shaking for 1 hour and the affinity beads were washed with wash buffer (1×PBS, 0.05% Tween 20). The beads were then resuspended in elution buffer (1×PBS, 0.05% Tween 20, 2 μM non-biotinylated affinity ligand) and incubated at room temperature with shaking for 30 minutes. The bromodomain concentration in the eluates was measured by qPCR.

BRD4-BD2 = BRD4-BD2 (Homo sapiens (Human), UniProt O60885); test: bromoKdELECT assay for binding affinity to BRD4-BD2
Description: as §1

KIF11 = KIF11 (Homo sapiens (Human), UniProt P52732); test: Enzyme-coupled ATPase assay for inhibition of KIF11; assay type: biochemical; conditions: KIF11 ATPase rate, 1 mM ATP
Description: The ATPase rate for Kif11 was monitored using an enzyme-coupled assay. Porcine brain microtubules (Cat #MT002) were purchased from Cytoskeleton (Denver, CO) and polymerized as per manufacturer's instructions and stored at 1 mg/ml at −80° C. GST-tagged Kif11/Eg5 (Cat #EG01-XL) and the Kinesin ELIPA Biochem Kit (Cat #BK060) was also purchased from Cytoskeleton. Taxol, microtubules, 7-methylthioguanosine (MESG), and purine nucleoside phosphorylase (PNP) were added to final concentrations of […], 0.05 mg/mL, […], 1U/m, 1 mM in EPLIA Reaction Buffer and allowed to incubate at room temperature for 15 minutes under rocking. Kif11 was then added at a final concentration of […] and allowed to incubate at room temperature for an additional 15 minutes. Master mix ([…]) was added to a black 384-well plate (Corning 3575), to which […] of DMSO or compound were added to appropriate wells. Plates were incubated at room temperature for 2 hours. ATPase reactions were initiated by addition of 1 mM ATP and monitored by OD340 every 1 minute over the course of 2 hours. The rate of the reaction was taken from the linear part of the resulting curve. IC50 was determined by plotting inhibitor concentration v. ATPase rate.

CDK1 = CDK1 (Homo sapiens (Human), UniProt P06493); test: KdELECT assay for binding affinity to CDK1
Description: (§2) Compounds were tested using a KdELECT assay. Kinase-tagged T7 phage strains were prepared in an E. coli host derived from the BL21 strain. E. coli were grown to log-phase and infected with T7 phage and incubated with shaking at 32° C. until lysis. The lysates were centrifuged and filtered to remove cell debris. The remaining kinases were produced in HEK-293 cells and subsequently tagged with DNA for qPCR detection. Streptavidin-coated magnetic beads were treated with biotinylated small molecule ligands for 30 minutes at room temperature to generate affinity resins for kinase assays. The liganded beads were blocked with excess biotin and washed with blocking buffer (SeaBlock (Pierce), 1% BSA, 0.05% Tween 20, 1 mM DTT) to remove unbound ligand and to reduce non-specific binding. Binding reactions were assembled by combining kinases, liganded affinity beads, and test compounds in 1×binding buffer (20% SeaBlock, 0.17×PBS, 0.05% Tween 20, 6 mM DTT). Test compounds were prepared as 111X stocks in 100% DMSO. Kd values were determined using an 11-point 3-fold compound dilution series with three DMSO control points. All compounds for Kd measurements are distributed by acoustic transfer (non-contact dispensing) in 100% DMSO. The compounds were then diluted directly into the assays such that the final concentration of DMSO was 0.9%. All reactions performed in polypropylene 384-well plate. Each was a final volume of 0.02 mL. The assay plates were incubated at room temperature with shaking for 1 hour and the affinity beads were washed with wash buffer (1×PBS, 0.05% Tween 20). The beads were then re-suspended in elution buffer (1×PBS, 0.05% Tween 20, 0.5 μM nonbiotinylated affinity ligand) and incubated at room temperature with shaking for 30 minutes. The kinase concentration in the eluates was measured by qPCR.

mTOR = mTOR (Homo sapiens (Human), UniProt P42345); test: KdELECT assay for binding affinity to mTOR
Description: as §2

BTK, sequence (Q06187 whole entry, the tested form may be a part): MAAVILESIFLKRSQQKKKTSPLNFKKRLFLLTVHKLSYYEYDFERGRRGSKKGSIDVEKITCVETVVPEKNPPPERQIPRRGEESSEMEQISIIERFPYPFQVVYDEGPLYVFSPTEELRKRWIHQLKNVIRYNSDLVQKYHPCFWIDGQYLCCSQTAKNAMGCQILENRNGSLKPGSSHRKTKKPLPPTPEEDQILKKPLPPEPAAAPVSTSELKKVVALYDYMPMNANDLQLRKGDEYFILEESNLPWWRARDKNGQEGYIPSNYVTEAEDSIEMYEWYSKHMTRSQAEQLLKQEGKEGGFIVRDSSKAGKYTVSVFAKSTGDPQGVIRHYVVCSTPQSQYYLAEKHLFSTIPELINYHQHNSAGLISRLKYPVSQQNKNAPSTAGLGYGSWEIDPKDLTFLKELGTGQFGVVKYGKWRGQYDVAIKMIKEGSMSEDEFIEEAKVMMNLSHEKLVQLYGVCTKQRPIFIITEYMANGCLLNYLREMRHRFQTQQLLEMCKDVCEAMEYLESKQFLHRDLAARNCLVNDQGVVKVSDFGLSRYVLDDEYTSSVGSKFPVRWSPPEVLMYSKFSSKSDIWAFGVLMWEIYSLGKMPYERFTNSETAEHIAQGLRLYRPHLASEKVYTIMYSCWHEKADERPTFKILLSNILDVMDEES
CDK1, sequence (P06493 whole entry): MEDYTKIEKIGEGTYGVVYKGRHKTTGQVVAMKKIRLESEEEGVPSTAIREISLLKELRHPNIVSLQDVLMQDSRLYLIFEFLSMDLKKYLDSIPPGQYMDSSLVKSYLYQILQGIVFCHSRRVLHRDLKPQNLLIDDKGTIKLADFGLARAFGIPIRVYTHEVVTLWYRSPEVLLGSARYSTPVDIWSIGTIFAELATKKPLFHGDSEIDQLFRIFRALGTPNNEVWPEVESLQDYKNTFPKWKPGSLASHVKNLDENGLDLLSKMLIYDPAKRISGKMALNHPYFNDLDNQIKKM
KIF11, sequence (P52732 1-368): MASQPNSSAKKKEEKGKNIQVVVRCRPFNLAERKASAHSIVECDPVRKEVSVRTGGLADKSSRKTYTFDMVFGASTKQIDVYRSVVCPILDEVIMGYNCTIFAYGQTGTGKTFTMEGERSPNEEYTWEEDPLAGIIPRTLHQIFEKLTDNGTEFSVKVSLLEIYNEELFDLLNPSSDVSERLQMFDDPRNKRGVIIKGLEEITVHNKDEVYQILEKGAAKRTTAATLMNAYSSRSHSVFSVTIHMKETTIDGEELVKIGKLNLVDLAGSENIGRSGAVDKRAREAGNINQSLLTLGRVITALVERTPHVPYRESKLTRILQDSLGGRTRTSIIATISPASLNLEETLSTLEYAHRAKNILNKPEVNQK

Kd (BTK) [nM]	Kd (BRD4-BD1) [nM]	Kd (BRD4-BD2) [nM]	Kd (CDK1) [nM]	Compound	further results
–	–	–	> 2500	CCc1cnn2c(NCc3ccc(OCCOCCOCCOCCOCCOCCOCCOCCOCCOC/C=C/C(=O)N4CCC[C@@H](n5nc(-c6ccc(Oc7ccccc7)cc6)c6c(N)ncnc65)C4)nc3)cc(N3CCCC[C@H]3CCO)nc12 [Compound I-47]	–
< 50	50 to 500	< 50	–	Cc1sc2c(c1C)C(c1ccc(Cl)cc1)=N[C@@H](CC(=O)NCCOCCOCCOCCOCCOCCOC/C=C/C(=O)N1CCC[C@@H](n3nc(-c4ccc(Oc5ccccc5)cc4)c4c(N)ncnc43)C1)c1nnc(C)n1-2 [Compound I-26, N-[2-[2-[2-[2-[2-[2-[(E)-4-[(3R)-3-[4-amino-3-(4-phenoxyphenyl)pyrazolo[3,4-d]pyrimidin-1-yl]-1-piperidyl]-4-oxo-but-2-enoxy]ethoxy]ethoxy]ethoxy]ethoxy]ethoxy]ethyl]-2-[(9S)-7-(4-chlorophenyl)-4,5, 13-trimethyl-3-thia-1,8, 11,12-tetrazatricyclo[8.3.0.0^2,6]trideca-2 (6),4,7,10, 12-pentaen-9-yl]acetamide]	–
< 50	–	–	–	C[C@@H]1COCCN1c1nc(N2CCOC[C@H]2C)c2ccc(-c3cccc(C(=O)NCCOCCOCCOCCOCCOCCOCCOCCOC/C=C/C(=O)N4CCC[C@@H](n5nc(-c6ccc(Oc7ccccc7)cc6)c6c(N)ncnc65)C4)c3)nc2n1 [Compound I-5, N-[2-[2-[2-[2-[2-[2-[2-[2-[(E)-4-[(3R)-3-[4-amino-3-(4-phenoxyphenyl)pyrazolo[3,4-d]pyrimidin-1-yl]-1-piperidyl]-4-oxo-but-2-enoxy]ethoxy]ethoxy]ethoxy]ethoxy]ethoxy]ethoxy]ethoxy]ethyl]-3-[2,4-bis[(3R)-3-methylmorpholin-4-yl]pyrido[2,3-d]pyrimidin-7-yl]benzamide]	Kd (mTOR): 50 to 500 nM
< 50	–	–	> 2500	CCc1cnn2c(NCc3ccc(OCCOCCOCCOCCOCCN(C)C/C=C/C(=O)N4CCC[C@@H](n5nc(-c6ccc(Oc7ccccc7)cc6)c6c(N)ncnc65)C4)nc3)cc(N3CCCC[C@H]3CCO)nc12 [Compound I-43]	–

Continued, compound first:

Compound	Kd (BTK) [nM]	Kd (BRD4-BD1) [nM]	Kd (BRD4-BD2) [nM]	Kd (CDK1) [nM]	further results
Cc1sc2c(c1C)C(c1ccc(Cl)cc1)=N[C@@H](CC(=O)NCCCN1CCN(CCCN(C)C/C=C/C(=O)N3CCC[C@@H](n4nc(-c5ccc(Oc6ccccc6)cc5)c5c(N)ncnc54)C3)CC1)c1nnc(C)n1-2 [Compound I-29, N-[3-[4-[3-[[(E)-4-[(3R)-3-[4-amino-3-(4-phenoxyphenyl)pyrazolo[3,4-d]pyrimidin-1-yl]-1-piperidyl]-4-oxo-but-2-enyl]-methyl-amino]propyl]piperazin-1-yl]propyl]-2-[(9S)-7-(4-chlorophenyl)-4,5, 13-trimethyl-3-thia-1,8, 11,12-tetrazatricyclo[8.3.0.0^2,6]trideca-2 (6),4,7,10,12-pentaen-9-yl]acetamide]	< 50	< 50	< 50	–	–
CN(OCCOCCOCCOCCOCCOC/C=C/C(=O)N1CCC[C@@H](n2nc(-c3ccc(Oc4ccccc4)cc3)c3c(N)ncnc32)C1)C(=O)N1N=C(c2cc(F)ccc2F)SC1(CCCN)c1ccccc1 (stereo partly drawn) [Compound I-49]	–	–	–	–	IC50 (KIF11): 50 to 500 nM
CN(C/C=C/C(=O)N1CCC[C@@H](n2nc(-c3ccc(Oc4ccccc4)cc3)c3c(N)ncnc32)C1)CCCN1CCN(CCCNS(=O)(=O)c2ccc(Nc3ncc(Br)c(Nc4cccc(F)c4C(N)=O)n3)cc2)CC1 [Compound I-18, 2-[[2-[4-[3-[4-[3-[[(E)-4-[(3R)-3-[4-amino-3-(4-phenoxyphenyl)pyrazolo[3,4-d]pyrimidin-1-yl]-1-piperidyl]-4-oxo-but-2-enyl]-methyl-amino]propyl]piperazin-1-yl]propylsulfamoyl]anilino]-5-bromo-pyrimidin-4-yl]amino]-6-fluoro-benzamide]	< 50	–	–	< 50	–
NC(=O)c1c(F)cccc1Nc1nc(Nc2ccc(S(=O)(=O)NCCOCCOCCOCCOCCOCCOC/C=C/C(=O)N3CCC[C@@H](n4nc(-c5ccc(Oc6ccccc6)cc5)c5c(N)ncnc54)C3)cc2)ncc1Br [Compound I-15]	< 50	–	–	50 to 500	–
NC(=O)c1c(F)cccc1Nc1nc(Nc2ccc(S(=O)(=O)NCCOCCOC/C=C/C(=O)N3CCC[C@@H](n4nc(-c5ccc(Oc6ccccc6)cc5)c5c(N)ncnc54)C3)cc2)ncc1Br [Compound I-13, 2-[[2-[4-[2-[2-[(E)-4-[(3R)-3-[4-amino-3-(4-phenoxyphenyl)pyrazolo[3,4-d]pyrimidin-1-yl]-1-piperidyl]-4-oxo-but-2-enoxy]ethoxy]ethylsulfamoyl]anilino]-5-bromo-pyrimidin-4-yl]amino]-6-fluoro-benzamide]	50 to 500	–	–	500 to 2500	–
Cc1sc2c(c1C)C(c1ccc(Cl)cc1)=N[C@@H](CC(=O)NCCCCCCCC/C=C/C(=O)N1CCC[C@@H](n3nc(-c4ccc(Oc5ccccc5)cc4)c4c(N)ncnc43)C1)c1nnc(C)n1-2 [Compound I-28, N—[(E)-11-[(3R)-3-[4-amino-3-(4-phenoxyphenyl)pyrazolo[3,4-d]pyrimidin-1-yl]-1-piperidyl]-11-oxo-undec-9-enyl]-2-[(9S)-7-(4-chlorophenyl)-4,5,13-trimethyl-3-thia-1,8,11,12-tetrazatricyclo[8.3.0.0^2,6]trideca-2 (6),4,7,10,12-pentaen-9-yl]acetamide]	500 to 2500	> 2500	500 to 2500	–	–
Cc1sc2c(c1C)C(c1ccc(Cl)cc1)=N[C@@H](CC(=O)NCCOCCOC/C=C/C(=O)N1CCC[C@@H](n3nc(-c4ccc(Oc5ccccc5)cc4)c4c(N)ncnc43)C1)c1nnc(C)n1-2 [Compound I-24, N-[2-[2-[(E)-4-[(3R)-3-[4-amino-3-(4-phenoxyphenyl)pyrazolo[3,4-d]pyrimidin-1-yl]-1-piperidyl]-4-oxo-but-2-enoxy]ethoxy]ethyl]-2-[(9S)-7-(4-chlorophenyl)-4,5,13-trimethyl-3-thia-1,8,11,12-tetrazatricyclo[8.3.0.02.6]trideca-2 (6),4,7,10,12-pentaen-9-yl]acetamide]	< 50	50 to 500	< 50	–	–
CN(C/C=C/C(=O)N1CCC[C@@H](n2nc(-c3ccc(Oc4ccccc4)cc3)c3c(N)ncnc32)C1)CCOCCOCCOCCOCCON(C)C(=O)N1N=C(c2cc(F)ccc2F)SC1(CCCN)c1ccccc1 (stereo partly drawn) [Compound I-50]	–	–	–	–	IC50 (KIF11): < 50 nM
Cc1sc2c(c1C)C(c1ccc(Cl)cc1)=N[C@@H](CC(=O)NCCOCCOCCOc1ccc(C(=O)NC3C(C)(C)C(Oc4ccc(C#N)c(Cl)c4)C3(C)C)cc1)c1nnc(C)n1-2 (stereo partly drawn) [Compound I-32]	–	500 to 2500	50 to 500	–	–
